Test results published in the supplement of paper PMC10307832.

Key:
Experiment in all cases: relative viability (nuclei count vs DMSO), 5 days (fraction); higher = more cells survive
[1] = compound: COc1nc(N)nc2c1ncn2[C@@H]1O[C@H](CO)[C@@H](O)[C@@H]1O [Nelarabine] + COc1cccc2cc(-c3nc([C@H]4CC[C@H](C(=O)O)CC4)n4ncnc(N)c34)[nH]c12 [OSI-027] (partner 0.5 µM)
How it was run: (§1)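 Lung cancer cell lines in 1536-well plates were dosed by pin tool the day after seeding, either with one drug alone or with a fixed anchor-drug dose plus five library-drug doses (not always all listed) in √10 steps. After 5 days, cells were fixed and their nuclei stained in one step (final 0.05% Triton X-100, 1% formaldehyde, 1 ug/ml Hoechst), then counted on 4× images. Relative viability is the nuclei count in treated wells divided by that in vehicle wells. Values are medians of duplicate plates.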

[2] = compound: C=CCn1c(=O)c2cnc(Nc3ccc(N4CCN(C)CC4)cc3)nc2n1-c1cccc(C(C)(C)O)n1 [Adavosertib] + CCNC(=O)c1noc(-c2cc(C(C)C)c(O)cc2O)c1-c1ccc(CN2CCOCC2)cc1 [Luminespib] (partner 0.01 µM)
How it was run: as §1

[3] = compound: C=CCn1c(=O)c2cnc(Nc3ccc(N4CCN(C)CC4)cc3)nc2n1-c1cccc(C(C)(C)O)n1 [Adavosertib] + CS(=O)(=O)N1CCN(Cc2cc3nc(-c4cccc5[nH]ncc45)nc(N4CCOCC4)c3s2)CC1 [Pictilisib] (partner 1 µM)
How it was run: as §1

[4] = compound: COc1nc(N)nc2c1ncn2[C@@H]1O[C@H](CO)[C@@H](O)[C@@H]1O [Nelarabine] + NC(=O)Nc1cc(-c2cccc(F)c2)sc1C(=O)N[C@H]1CCCNC1 [AZD7762] (partner 0.2 µM)
How it was run: as §1

Row | Cell Line | relative viability ([1]; first compound 0.01 µM) | relative viability ([1]; first compound 0.03162 µM) | relative viability ([1]; first compound 0.1 µM) | relative viability ([1]; first compound 0.3162 µM) | relative viability ([1]; first compound 1 µM) | relative viability ([2]; first compound 0.01 µM) | relative viability ([2]; first compound 0.03162 µM) | relative viability ([2]; first compound 0.1 µM) | relative viability ([2]; first compound 0.3162 µM) | relative viability ([3]; first compound 0.01 µM) | relative viability ([3]; first compound 0.03162 µM) | relative viability ([3]; first compound 0.1 µM) | relative viability ([3]; first compound 0.3162 µM) | relative viability ([4]; first compound 0.01 µM) | relative viability ([4]; first compound 0.03162 µM) | relative viability ([4]; first compound 0.1 µM) | relative viability ([4]; first compound 0.3162 µM) | relative viability ([4]; first compound 1 µM)
1 | LC-2-ad | 0.922 | 0.879 | 0.754 | 0.81 | 0.875 | 1.01 | 1.11 | 1.26 | 1.08 | 0.455 | 0.587 | 0.424 | 0.37 | 1.01 | 0.96 | 0.859 | 0.908 | 0.856
2 | RERF-LC-KJ | 0.654 | 0.524 | 0.505 | 0.59 | 0.627 | 1.32 | 1.33 | 1.29 | 1.16 | 0.568 | 0.636 | 0.519 | 0.358 | 0.993 | 1.11 | 1.02 | 1.15 | 1.08
3 | EKVX | 0.797 | 0.661 | 0.652 | 0.729 | 0.685 | 0.875 | 0.853 | 0.84 | 0.967 | 0.44 | 0.448 | 0.433 | 0.437 | 0.977 | 0.63 | 0.606 | 0.717 | 0.732
4 | NCI-H1395 | 0.611 | 0.587 | 0.632 | 0.615 | 0.634 | 0.836 | 0.741 | 0.734 | 0.424 | 0.545 | 0.546 | 0.596 | 0.635 | 0.386 | 0.419 | 0.388 | 0.406 | 0.39
5 | LOU-NH91 | 0.738 | 0.785 | 0.657 | 0.765 | 0.748 | 0.34 | 0.375 | 0.357 | 0.32 | 0.521 | 0.508 | 0.544 | 0.457 | 0.868 | 0.69 | 0.78 | 0.732 | 0.69
6 | NCI-H647 | 0.481 | 0.683 | 0.68 | 0.68 | 0.571 | 0.128 | 0.179 | 0.151 | 0.136 | 0.453 | 0.471 | 0.405 | 0.318 | 0.554 | 0.294 | 0.563 | 0.58 | 0.431
7 | NCI-H3122 | 1.34 | 1.01 |  | 1.11 | 1.03 | 0.0987 | 0.0823 | 0.12 | 0.0969 | 0.584 | 0.606 | 0.72 | 0.613 | 1.24 | 0.769 |  | 0.998 | 0.969
8 | NCI-H650 | 0.616 | 0.529 | 0.48 | 0.563 | 0.501 | 0.76 | 0.842 | 0.841 | 0.673 | 0.926 | 1.04 | 1.05 | 0.805 | 0.75 | 0.991 | 0.915 | 0.932 | 0.943
9 | H3255 |  | 0.653 | 0.637 | 0.585 | 0.456 | 0.801 | 1.03 | 0.937 | 0.95 | 0.502 | 0.452 | 0.447 | 0.402 | 0.835 | 0.933 | 0.938 | 0.854 | 0.95
10 | HCC-15 | 0.817 | 0.559 | 0.675 | 0.703 | 0.778 | 0.309 | 0.325 | 0.334 | 0.359 | 0.724 | 0.713 | 0.727 | 0.934 | 1.47 | 1.15 | 0.967 | 1.17 | 1.19
11 | PC-3 [JPC-3] | 0.854 | 0.604 | 0.73 | 0.744 | 0.685 | 0.665 | 0.746 | 0.657 | 0.724 | 0.719 | 0.775 | 0.725 | 0.865 | 0.9 | 0.764 | 0.761 | 0.957 | 0.792
12 | NCI-H1915 | 0.675 | 0.666 | 0.678 | 0.706 | 0.684 | 0.912 | 0.729 | 0.752 | 0.617 | 0.97 | 1 | 1.05 | 0.985 | 0.747 | 0.728 | 0.687 | 0.704 | 0.733
13 | ChaGo-K-1 | 0.676 | 0.444 | 0.663 | 0.758 | 0.589 | 0.502 | 0.683 | 0.489 | 0.719 | 0.579 | 0.678 | 0.663 | 0.631 | 1 | 0.715 | 0.871 | 0.985 | 0.821
14 | PC-14 | 1.41 | 0.97 | 0.936 | 1.22 | 1.05 | 0.151 | 0.165 | 0.219 | 0.141 | 0.72 | 0.64 | 0.569 | 0.272 | 0.382 | 0.319 | 0.447 | 0.417 | 0.304
15 | LK-2 | 0.167 |  | 0.159 | 0.178 | 0.162 | 0.163 | 0.216 | 0.182 | 0.183 | 0.549 | 0.622 | 0.676 | 0.59 | 0.408 |  | 0.289 | 0.498 | 0.309
16 | NCI-H1975 | 0.791 | 0.55 | 0.87 | 0.834 | 0.876 | 0.16 | 0.17 | 0.188 | 0.176 | 0.267 | 0.279 | 0.261 | 0.19 | 0.964 | 0.799 | 0.778 | 0.701 | 0.766
17 | LXF-289 | 0.899 | 0.97 | 0.966 | 0.958 | 0.736 | 0.598 | 0.651 | 0.654 | 0.783 | 0.786 | 0.746 | 0.782 | 0.788 | 1.22 | 1.14 | 1.02 | 1.17 | 1
18 | NCI-H1993 | 0.596 | 0.502 | 0.551 | 0.567 | 0.585 | 0.912 | 0.904 | 0.836 | 1.06 | 0.858 | 0.818 | 0.932 | 0.719 | 0.845 | 0.438 | 0.642 | 0.841 | 0.692
19 | NCI-H23 | 0.686 | 0.504 | 0.512 | 0.738 | 0.62 | 0.217 | 0.252 | 0.233 | 0.21 | 0.504 | 0.51 | 0.49 | 0.236 | 0.205 | 0.227 | 0.241 | 0.232 | 0.25
20 | LCLC-97TM1 | 0.713 | 0.483 | 0.357 | 0.527 | 0.56 | 0.78 | 0.54 | 0.982 | 0.804 |  | 0.146 | 0.223 | 0.167 | 0.273 |  | 0.351 | 0.281 | 0.215
21 | NCI-H441 | 0.535 | 0.497 | 0.592 | 0.782 | 0.647 | 0.291 | 0.346 | 0.418 | 0.276 | 0.561 | 0.497 | 0.378 | 0.33 | 1.33 | 1.2 | 1.43 | 1.14 | 1.23
22 | NCI-H1734 | 0.759 | 0.609 | 0.547 | 0.582 | 0.619 | 0.234 | 0.241 | 0.184 | 0.191 | 0.41 | 0.434 | 0.478 | 0.31 | 0.699 | 0.5 | 0.484 | 0.603 | 0.531
23 | NCI-H1437 | 1.04 | 0.859 | 0.845 | 0.948 | 0.796 | 1.07 | 1.2 | 1.17 | 1.07 | 0.371 | 0.435 | 0.401 | 0.404 | 1.24 | 1.17 | 1.15 | 1.15 | 1.09
24 | NCI-H727 | 0.565 | 0.722 | 0.534 | 0.562 | 0.695 | 0.299 | 0.363 | 0.301 | 0.24 | 0.525 | 0.341 | 0.359 | 0.366 | 0.497 | 0.525 | 0.463 | 0.543 | 0.463
25 | NCI-H1651 | 0.761 | 0.677 | 0.727 | 0.874 | 0.631 | 0.812 | 1.06 | 0.733 | 0.678 | 0.497 | 0.491 | 0.565 | 0.42 | 0.495 | 0.53 | 0.452 | 0.518 | 0.422
26 | NCI-H838 | 0.463 | 0.377 | 0.324 | 0.426 | 0.45 | 0.293 | 0.302 | 0.313 | 0.284 | 0.446 | 0.411 | 0.449 | 0.485 | 1.04 | 0.847 | 0.955 | 1 | 0.957
27 | NCI-H460 | 1.06 | 1.08 | 0.971 | 1.08 | 0.79 | 0.0322 | 0.0312 | 0.0317 | 0.0275 | 0.315 | 0.355 | 0.289 | 0.417 | 0.79 | 0.626 | 0.616 | 0.558 | 0.323
28 | NCI-H2170 | 0.716 | 0.67 | 0.704 | 0.656 | 0.753 | 0.592 | 0.747 | 0.626 | 0.479 | 0.345 | 0.308 | 0.264 | 0.31 | 1.15 | 0.869 | 0.843 | 0.932 | 0.709
29 | HOP-62 | 0.981 | 0.866 | 0.971 | 0.941 | 0.838 | 0.997 | 0.906 | 0.909 | 0.945 | 0.771 | 0.891 | 0.762 | 0.961 | 0.684 | 0.396 | 0.602 | 0.798 | 0.48
30 | NCI-H1755 | 0.647 | 0.642 | 0.699 | 0.835 | 0.781 | 0.417 | 0.616 | 0.342 | 0.531 | 0.433 | 0.451 | 0.4 | 0.326 | 0.473 | 0.455 | 0.425 | 0.516 | 0.474
